Active and inactive are the calls of the source. The rule behind the calls is not given here.
Tested on: CCRIS mutagenicity, Ames/micronucleus/aberration tests
Test: CCRIS mutagenicity studies

Cc1ccccc1N
mutagenic call (Test System: AMES SALMONELLA TYPHIMURIUM, Strain/Indicator: TA104, Metabolic Activation: HAMSTER, LIVER, S-9, SODIUM PHENOBARBITAL AND 5,6-BENZOFLAVONE, Method: PREINCUBATION): inactive; negative | mutagenic call (Test System: AMES SALMONELLA TYPHIMURIUM, Strain/Indicator: TA104, Metabolic Activation: NONE, Method: PREINCUBATION): inactive; negative | mutagenic call (Test System: AMES SALMONELLA TYPHIMURIUM, Strain/Indicator: TA1535, Metabolic Activation: HAMSTER LIVER S-9, AROCLOR 1254 (10%), Method: PREINCUBATION): inactive; negative | mutagenic call (Test System: AMES SALMONELLA TYPHIMURIUM, Strain/Indicator: TA1535, Metabolic Activation: HAMSTER, LIVER, S-9, AROCLOR 1254 (10%), Method: PREINCUBATION): inactive; negative | mutagenic call (Test System: AMES SALMONELLA TYPHIMURIUM, Strain/Indicator: TA1535, Metabolic Activation: HAMSTER, LIVER, S-9, SODIUM PHENOBARBITAL AND 5,6-BENZOFLAVONE, Method: PREINCUBATION): inactive; negative | mutagenic call (Test System: AMES SALMONELLA TYPHIMURIUM, Strain/Indicator: TA1535, Metabolic Activation: NONE, Method: PREINCUBATION): inactive; negative | mutagenic call (Test System: AMES SALMONELLA TYPHIMURIUM, Strain/Indicator: TA1535, Metabolic Activation: NONE, Method: STANDARD PLATE): inactive; negative | mutagenic call (Test System: AMES SALMONELLA TYPHIMURIUM, Strain/Indicator: TA1535, Metabolic Activation: RAT LIVER S-9, AROCLOR 1254 (10 OR 30%), Method: PREINCUBATION): inactive; negative | mutagenic call (Test System: AMES SALMONELLA TYPHIMURIUM, Strain/Indicator: TA1535, Metabolic Activation: RAT, LIVER, S-9, AROCLOR 1254 (10%), Method: PREINCUBATION): inactive; negative | mutagenic call (Test System: AMES SALMONELLA TYPHIMURIUM, Strain/Indicator: TA1535, Metabolic Activation: RAT, LIVER, S-9, AROCLOR 1254, Method: STANDARD PLATE): inactive; negative | mutagenic call (Test System: AMES SALMONELLA TYPHIMURIUM, Strain/Indicator: TA1537, Metabolic Activation: HAMSTER, LIVER, S-9, AROCLOR 1254 (10%), Method: PREINCUBATION): inactive; negative | mutagenic call (Test System: AMES SALMONELLA TYPHIMURIUM, Strain/Indicator: TA1537, Metabolic Activation: HAMSTER, LIVER, S-9, SODIUM PHENOBARBITAL AND 5,6-BENZOFLAVONE, Method: PREINCUBATION): inactive; negative | mutagenic call (Test System: AMES SALMONELLA TYPHIMURIUM, Strain/Indicator: TA1537, Metabolic Activation: NONE, Method: PREINCUBATION): inactive; negative | mutagenic call (Test System: AMES SALMONELLA TYPHIMURIUM, Strain/Indicator: TA1537, Metabolic Activation: NONE, Method: STANDARD PLATE): inactive; negative | mutagenic call (Test System: AMES SALMONELLA TYPHIMURIUM, Strain/Indicator: TA1537, Metabolic Activation: RAT, LIVER, S-9, AROCLOR 1254 (10%), Method: PREINCUBATION): inactive; negative | mutagenic call (Test System: AMES SALMONELLA TYPHIMURIUM, Strain/Indicator: TA1537, Metabolic Activation: RAT, LIVER, S-9, AROCLOR 1254, Method: STANDARD PLATE): inactive; negative | mutagenic call (Test System: AMES SALMONELLA TYPHIMURIUM, Strain/Indicator: TA1538, Metabolic Activation: NONE, Method: STANDARD PLATE): inactive; negative | mutagenic call (Test System: AMES SALMONELLA TYPHIMURIUM, Strain/Indicator: TA1538, Metabolic Activation: RAT, LIVER, S-9, AROCLOR 1254, Method: STANDARD PLATE): inactive; negative | mutagenic call (Test System: CHINESE HAMSTER OVARY, Strain/Indicator: CHO/6-THIOGUANINE, Metabolic Activation: HAMSTER EMBRYO CELL-MEDIATED): inactive; negative | mutagenic call (Test System: CHINESE HAMSTER OVARY, Strain/Indicator: CHO/6-THIOGUANINE, Metabolic Activation: NONE): inactive; negative | mutagenic call (Test System: CHINESE HAMSTER OVARY, Strain/Indicator: CHO/OUABAIN, Metabolic Activation: NONE): inactive; negative | mutagenic call (Test System: CHINESE HAMSTER V-79, Strain/Indicator: V-79 (HGPRT)/6-THIOGUANINE, Metabolic Activation: NONE): inactive; negative | mutagenic call (Test System: CHINESE HAMSTER V-79, Strain/Indicator: V-79 (HGPRT)/6-THIOGUANINE, Metabolic Activation: RAT, LIVER, S-9, PHENOBARBITAL AND BETA-NAPHTHOFLAVONE): inactive; negative | mutagenic call (Test System: CHINESE HAMSTER V-79, Strain/Indicator: V-79/6-THIOGUANINE, Metabolic Activation: NONE, Method: REPLATING): active; positive | mutagenic call (Test System: CHINESE HAMSTER V-79, Strain/Indicator: V-79/6-THIOGUANINE, Metabolic Activation: RAT, LIVER, S-9, PHENOBARBITAL AND 5,6-BENZOFLAVONE, Method: REPLATING): inactive; negative | mutagenic call (Test System: CHINESE HAMSTER V-79, Strain/Indicator: V-79/OUABAIN, Metabolic Activation: NONE): inactive; negative | mutagenic call (Test System: CHINESE HAMSTER V-79, Strain/Indicator: V-79/OUABAIN, Metabolic Activation: RAT, LIVER, S-15, PHENOBARBITAL AND 5,6-BENZOFLAVONE): inactive; negative | mutagenic call (Test System: E. COLI, Strain/Indicator: WP2UVRA/PKM101, Metabolic Activation: HAMSTER, LIVER, S-9, SODIUM PHENOBARBITAL AND 5,6-BENZOFLAVONE, Method: PREINCUBATION): inactive; negative | mutagenic call (Test System: E. COLI, Strain/Indicator: WP2UVRA/PKM101, Metabolic Activation: NONE, Method: PREINCUBATION): inactive; negative | mutagenic call (Test System: E. COLI, Strain/Indicator: WP2UVRA, Metabolic Activation: HAMSTER, LIVER, S-9, SODIUM PHENOBARBITAL AND 5,6-BENZOFLAVONE, Method: PREINCUBATION): inactive; negative | mutagenic call (Test System: E. COLI, Strain/Indicator: WP2 UVRA, Metabolic Activation: NONE, Method: PREINCUBATION): inactive; negative | mutagenic call (Test System: E. COLI, Strain/Indicator: WP2UVRA, Metabolic Activation: NONE, Method: PREINCUBATION): inactive; negative | mutagenic call (Test System: E. COLI, Strain/Indicator: WP2 UVRA, Metabolic Activation: RAT, LIVER, S-9, PHENOBARBITAL AND 5,6-BENZOFLAVONE, Method: PREINCUBATION): inactive; negative | mutagenic call (Test System: MOUSE LYMPHOMA, Strain/Indicator: L5178Y (TK+/+)/OUABAIN, Metabolic Activation: NONE, Method: SUSPENSION/PLATE): inactive; negative | mutagenic call (Test System: MOUSE LYMPHOMA, Strain/Indicator: L5178Y (TK+/+)/OUABAIN, Metabolic Activation: RAT LIVER S-9, AROCLOR 1254, Method: SUSPENSION/PLATE): inactive; negative | mutagenic call (Test System: MOUSE LYMPHOMA, Strain/Indicator: L5178Y (TK+/-)/TRIFLUROTHYMIDINE, Metabolic Activation: NONE, Method: SUSPENSION/PLATE): inactive; negative | mutagenic call (Test System: MOUSE LYMPHOMA, Strain/Indicator: L5178Y (TK+/-)/TRIFLUROTHYMIDINE, Metabolic Activation: RAT LIVER S-9, AROCLOR 1254, Method: SUSPENSION/PLATE): inactive; negative | mutagenic call (Test System: MOUSE LYMPHOMA, Strain/Indicator: L5178Y (TK+/TK-), Metabolic Activation: NONE, Method: SUSPENSION/PLATE): inactive; negative | mutagenic call (Test System: MOUSE LYMPHOMA, Strain/Indicator: L5178Y (TK+/TK-), Metabolic Activation: RAT, LIVER, S-9, Method: SUSPENSION/PLATE): inactive; negative | mutagenic call (Test System: UDS RAT HEPATOCYTES, Strain/Indicator: THY INCORP, Metabolic Activation: NONE, Method: LIQUID SCINTILLATION COUNTING): active; positive
